Key:
CBP = molecular target: T1, CBP (Homo sapiens, UniProt Q92793); experiment: CBP degradation, HiBit technology in A549 CBP HiBit cells (24 h); type: cell-based; conditions: 24 hrs post treatment
T1 construct: host or cells: A549 CBP HiBit cells
In short: (§1)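 Cells: A549 HiBiT-tagged lines, 0.2×10^4/well, F-12K + 10% HI-FBS, equilibrated overnight. Tx: serial dilution of cpd (10 mM DMSO stock). Readout: HiBiT lytic reagent, 10 min RT shaking, luminescence → potency, Dmax.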

p300 = molecular target: T2, p300 (Homo sapiens, UniProt Q09472); experiment: P300 degradation, HiBit technology in A549 P300 HiBit cells (2 h); type: cell-based; conditions: 2 hrs post treatment; for Dmax: A549, A549 P300 HiBit cells; for DC50: A549 P300 HiBit cells
T2 construct: host or cells: A549 P300 HiBit cells
T2 sequence (Q09472 whole entry): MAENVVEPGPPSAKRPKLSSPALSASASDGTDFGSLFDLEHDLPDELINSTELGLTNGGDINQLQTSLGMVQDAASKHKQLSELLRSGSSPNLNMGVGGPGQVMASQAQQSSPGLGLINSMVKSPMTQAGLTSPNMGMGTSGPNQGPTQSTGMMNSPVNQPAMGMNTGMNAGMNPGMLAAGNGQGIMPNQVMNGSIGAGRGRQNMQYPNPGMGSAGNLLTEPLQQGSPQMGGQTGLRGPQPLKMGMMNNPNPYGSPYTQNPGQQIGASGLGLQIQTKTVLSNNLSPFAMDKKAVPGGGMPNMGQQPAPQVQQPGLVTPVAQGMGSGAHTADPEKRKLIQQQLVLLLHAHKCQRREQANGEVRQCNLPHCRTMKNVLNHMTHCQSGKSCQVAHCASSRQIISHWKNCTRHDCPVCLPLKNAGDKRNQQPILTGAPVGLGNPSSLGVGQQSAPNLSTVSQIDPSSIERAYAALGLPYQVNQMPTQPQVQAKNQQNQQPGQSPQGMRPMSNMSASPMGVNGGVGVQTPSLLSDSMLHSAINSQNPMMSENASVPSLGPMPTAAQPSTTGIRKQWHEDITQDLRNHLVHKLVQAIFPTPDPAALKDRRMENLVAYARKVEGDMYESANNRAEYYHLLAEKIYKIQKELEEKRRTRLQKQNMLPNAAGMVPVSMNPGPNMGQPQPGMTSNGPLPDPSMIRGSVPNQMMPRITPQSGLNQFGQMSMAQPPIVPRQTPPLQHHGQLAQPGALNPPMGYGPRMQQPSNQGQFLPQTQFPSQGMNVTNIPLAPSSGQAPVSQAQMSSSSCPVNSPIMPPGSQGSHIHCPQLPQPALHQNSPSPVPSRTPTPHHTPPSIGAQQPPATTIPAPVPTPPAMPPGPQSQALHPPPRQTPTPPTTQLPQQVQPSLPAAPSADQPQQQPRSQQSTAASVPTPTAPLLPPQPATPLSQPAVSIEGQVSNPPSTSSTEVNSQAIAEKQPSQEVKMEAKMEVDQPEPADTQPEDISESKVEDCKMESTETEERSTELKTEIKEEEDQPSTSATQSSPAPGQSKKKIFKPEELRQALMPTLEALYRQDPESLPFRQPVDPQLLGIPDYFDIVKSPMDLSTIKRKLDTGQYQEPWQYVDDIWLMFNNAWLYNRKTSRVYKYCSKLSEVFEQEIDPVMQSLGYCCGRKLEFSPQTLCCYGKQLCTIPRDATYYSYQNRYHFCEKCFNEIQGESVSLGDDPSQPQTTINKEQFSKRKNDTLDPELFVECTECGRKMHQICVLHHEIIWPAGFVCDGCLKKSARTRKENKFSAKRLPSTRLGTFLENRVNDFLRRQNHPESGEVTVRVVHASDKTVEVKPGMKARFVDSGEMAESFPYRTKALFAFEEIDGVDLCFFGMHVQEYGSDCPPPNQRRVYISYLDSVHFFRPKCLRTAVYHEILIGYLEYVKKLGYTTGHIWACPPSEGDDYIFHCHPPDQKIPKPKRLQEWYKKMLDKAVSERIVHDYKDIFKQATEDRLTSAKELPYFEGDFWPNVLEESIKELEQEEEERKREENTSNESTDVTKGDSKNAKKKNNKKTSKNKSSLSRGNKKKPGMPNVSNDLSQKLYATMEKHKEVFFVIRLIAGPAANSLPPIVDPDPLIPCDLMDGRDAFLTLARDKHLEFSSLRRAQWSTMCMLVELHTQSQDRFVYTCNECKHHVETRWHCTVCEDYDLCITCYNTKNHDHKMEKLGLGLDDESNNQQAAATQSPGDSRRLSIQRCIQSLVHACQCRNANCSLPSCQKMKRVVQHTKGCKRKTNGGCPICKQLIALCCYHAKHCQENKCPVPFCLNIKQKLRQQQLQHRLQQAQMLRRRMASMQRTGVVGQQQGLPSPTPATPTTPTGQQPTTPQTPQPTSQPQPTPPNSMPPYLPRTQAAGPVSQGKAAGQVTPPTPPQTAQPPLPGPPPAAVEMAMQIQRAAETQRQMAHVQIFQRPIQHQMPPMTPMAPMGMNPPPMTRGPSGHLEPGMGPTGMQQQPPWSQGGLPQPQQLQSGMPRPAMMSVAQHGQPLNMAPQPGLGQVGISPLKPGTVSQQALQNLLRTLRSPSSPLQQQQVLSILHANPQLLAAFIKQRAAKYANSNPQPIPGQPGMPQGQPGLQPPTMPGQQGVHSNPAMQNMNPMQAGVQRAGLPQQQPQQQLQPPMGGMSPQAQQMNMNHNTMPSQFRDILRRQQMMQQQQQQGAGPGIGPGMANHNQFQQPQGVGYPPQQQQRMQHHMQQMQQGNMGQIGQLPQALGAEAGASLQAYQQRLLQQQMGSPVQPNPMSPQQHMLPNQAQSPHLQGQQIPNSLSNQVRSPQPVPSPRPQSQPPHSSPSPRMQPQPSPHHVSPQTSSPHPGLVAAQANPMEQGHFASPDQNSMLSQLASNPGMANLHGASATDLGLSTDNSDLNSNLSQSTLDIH
In short: as §1

T1 sequence (Q92793 whole entry): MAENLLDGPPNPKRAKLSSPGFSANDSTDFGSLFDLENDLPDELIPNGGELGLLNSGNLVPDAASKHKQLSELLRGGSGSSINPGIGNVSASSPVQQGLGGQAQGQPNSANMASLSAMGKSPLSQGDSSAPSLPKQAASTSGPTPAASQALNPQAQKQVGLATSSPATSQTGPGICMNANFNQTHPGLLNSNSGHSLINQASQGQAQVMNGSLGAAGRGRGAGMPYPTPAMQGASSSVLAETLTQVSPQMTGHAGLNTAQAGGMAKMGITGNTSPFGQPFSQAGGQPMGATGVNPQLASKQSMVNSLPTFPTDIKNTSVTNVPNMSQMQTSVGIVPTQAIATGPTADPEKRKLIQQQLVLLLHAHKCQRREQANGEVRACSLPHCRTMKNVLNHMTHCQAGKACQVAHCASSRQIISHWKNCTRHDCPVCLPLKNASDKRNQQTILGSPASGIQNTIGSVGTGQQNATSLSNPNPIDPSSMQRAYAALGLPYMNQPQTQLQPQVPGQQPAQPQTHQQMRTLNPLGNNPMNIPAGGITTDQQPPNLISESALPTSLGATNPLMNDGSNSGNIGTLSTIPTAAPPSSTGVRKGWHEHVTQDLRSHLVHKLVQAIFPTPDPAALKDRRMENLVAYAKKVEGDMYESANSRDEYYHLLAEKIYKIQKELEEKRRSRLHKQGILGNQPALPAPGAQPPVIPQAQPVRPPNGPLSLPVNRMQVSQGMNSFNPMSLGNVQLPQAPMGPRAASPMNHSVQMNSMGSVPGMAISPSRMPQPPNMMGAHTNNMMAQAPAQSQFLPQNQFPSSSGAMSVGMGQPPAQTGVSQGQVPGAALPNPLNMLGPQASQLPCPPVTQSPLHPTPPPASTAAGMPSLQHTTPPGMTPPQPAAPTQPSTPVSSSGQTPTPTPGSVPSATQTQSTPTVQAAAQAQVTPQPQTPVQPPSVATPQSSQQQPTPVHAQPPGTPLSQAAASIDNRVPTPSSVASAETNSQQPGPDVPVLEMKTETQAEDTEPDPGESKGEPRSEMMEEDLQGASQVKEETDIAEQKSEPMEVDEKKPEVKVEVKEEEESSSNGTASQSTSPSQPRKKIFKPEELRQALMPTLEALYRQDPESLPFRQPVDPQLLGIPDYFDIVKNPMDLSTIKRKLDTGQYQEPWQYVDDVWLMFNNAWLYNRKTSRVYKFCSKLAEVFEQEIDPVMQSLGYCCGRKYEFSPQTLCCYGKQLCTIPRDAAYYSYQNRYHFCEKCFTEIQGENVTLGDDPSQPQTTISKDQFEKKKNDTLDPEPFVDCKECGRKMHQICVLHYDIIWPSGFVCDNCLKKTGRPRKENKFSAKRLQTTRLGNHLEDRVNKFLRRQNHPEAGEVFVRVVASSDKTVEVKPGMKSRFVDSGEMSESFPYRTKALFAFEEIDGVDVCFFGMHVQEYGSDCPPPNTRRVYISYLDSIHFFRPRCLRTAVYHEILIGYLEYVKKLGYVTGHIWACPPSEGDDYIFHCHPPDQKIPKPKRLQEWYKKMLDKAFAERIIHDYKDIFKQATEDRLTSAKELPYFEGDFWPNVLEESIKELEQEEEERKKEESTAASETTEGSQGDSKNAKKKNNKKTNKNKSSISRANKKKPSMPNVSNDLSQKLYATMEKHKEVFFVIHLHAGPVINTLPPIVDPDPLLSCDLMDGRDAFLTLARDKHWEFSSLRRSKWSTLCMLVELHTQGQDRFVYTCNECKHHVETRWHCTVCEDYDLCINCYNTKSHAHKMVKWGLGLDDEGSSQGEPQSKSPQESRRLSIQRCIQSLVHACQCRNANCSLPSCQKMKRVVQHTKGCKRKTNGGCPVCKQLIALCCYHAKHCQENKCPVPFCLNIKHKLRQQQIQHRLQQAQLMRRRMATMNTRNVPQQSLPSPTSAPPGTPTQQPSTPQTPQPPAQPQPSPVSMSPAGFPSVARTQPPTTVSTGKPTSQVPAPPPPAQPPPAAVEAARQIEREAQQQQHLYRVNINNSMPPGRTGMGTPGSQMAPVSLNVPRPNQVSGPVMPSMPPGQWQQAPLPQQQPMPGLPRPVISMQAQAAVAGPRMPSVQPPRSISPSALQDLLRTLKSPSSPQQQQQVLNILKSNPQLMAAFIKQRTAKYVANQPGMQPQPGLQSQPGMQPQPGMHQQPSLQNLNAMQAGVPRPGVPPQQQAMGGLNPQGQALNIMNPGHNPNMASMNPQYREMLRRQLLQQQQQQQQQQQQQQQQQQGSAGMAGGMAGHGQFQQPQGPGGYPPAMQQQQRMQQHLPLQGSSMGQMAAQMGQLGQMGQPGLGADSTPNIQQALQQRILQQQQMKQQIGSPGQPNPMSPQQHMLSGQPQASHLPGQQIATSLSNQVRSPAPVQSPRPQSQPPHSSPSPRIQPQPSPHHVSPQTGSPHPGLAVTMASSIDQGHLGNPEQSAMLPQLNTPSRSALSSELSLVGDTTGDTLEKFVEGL

Row | Structure (SMILES) | DC50 (CBP) [nM] | Dmax (CBP) [%] | Dmax (p300) [%] | DC50 (p300) [nM]
1 | Cc1cc2c(N3CCCc4nc(-c5ccc(C(=O)NCC#Cc6cc7c(C8CCC(=O)NC8=O)nccc7o6)nc5)ncc43)cccc2n(C)c1=O (stereo not drawn) [Example B106, 5-(5-(1,3-dimethyl-2-oxo-1,2-dihydroquinolin-5-yl)-5,6,7,8-tetrahydropyrido[3,2-d]pyrimidin-2-yl)-N-(3-(4-(2,6-dioxopiperidin-3-yl)furo [3,2-c]pyridin-2-yl)prop-2-yn-1-yl) picolinamide] | 100 to 999 | < 20 | > 80 | < 1
2 | Cc1cc2c(N3CCCc4nc(-c5ccc(C(=O)NCC#Cc6ccc7occ(C89CC(C8)C(=O)NC9=O)c7c6)nc5)ncc43)cc(C3CCOCC3)cc2n(C)c1=O [Example B107, 5-(5-(1,3-dimethyl-2-oxo-7-(tetrahydro-2H-pyran-4-yl)-1,2-dihydroquinolin-5-yl)-5,6,7,8-tetrahydropyrido[3,2-d]pyrimidin-2-yl)-N-(3-(3-(2,4-dioxo-3-azabicyclo[3.1.1]heptan-1-yl)benzofuran-5-yl)prop-2-yn-1-yl) picolinamide] | > 1000 | < 20 | 60 to 79 | 1 to 9.9
3 | Cc1cc2c(N3CCCc4nc(-c5ccc(C(=O)NCC#Cc6ccc7onc(C8CCC(=O)NC8=O)c7c6)nc5)ncc43)cc(C3CCOCC3)cc2n(C)c1=O (stereo not drawn) [Example B108, 5-(5-(1,3-dimethyl-2-oxo-7-(tetrahydro-2H-pyran-4-yl)-1,2-dihydroquinolin-5-yl)-5,6,7,8-tetrahydropyrido[3,2-d]pyrimidin-2-yl)-N-(3-(3-(2,6-dioxopiperidin-3-yl)benzo[d]isoxazol-5-yl)prop-2-yn-1-yl)picolinamide] | 100 to 999 | < 20 | > 80 | < 1
4 | Cc1cc2c(N3CCCc4nc(-c5ccc(C(=O)NCC#Cc6ccc7occ(C8CCC(=O)NC8=O)c7c6)nc5)ncc43)cccc2n(C)c1=O (stereo not drawn) [Example B110, 5-(5-(1,3-dimethyl-2-oxo-1,2-dihydroquinolin-5-yl)-5,6,7,8-tetrahydropyrido[3,2-d]pyrimidin-2-yl)-N-(3-(3-(2,6-dioxopiperidin-3-yl)benzofuran-5-yl)prop-2-yn-1-yl)picolinamide] | > 1000 | < 20 | > 80 | 1 to 9.9
5 | CN1Cc2c(-c3cccc4cc(-c5ccc(C(=O)NCC#Cc6ccc7cnn(C8CCC(=O)NC8=O)c7c6)nc5)ncc34)cc(C(C)(F)F)cc2N(C)C1=O (stereo not drawn) [Example B111, 5-(8-(7-(1,1-difluoroethyl)-1,3-dimethyl-2-oxo-1,2,3,4-tetrahydroquinazolin-5-yl)isoquinolin-3-yl)-N-(3-(1-(2,6-dioxopiperidin-3-yl)-1H-indazol-6-yl)prop-2-yn-1-yl)picolinamide] | 10 to 99 | – | – | 1 to 9.9
6 | COc1cc(N2CCOc3cc(-c4ccc(C(=O)NCC#Cc5ccc6occ(C7CCC(=O)NC7=O)c6c5)nc4)ncc32)c2cc(C)c(=O)n(C)c2c1 (stereo not drawn) [Example B112, N-(3-(3-(2,6-dioxopiperidin-3-yl)benzofuran-5-yl)prop-2-yn-1-yl)-5-(4-(7-methoxy-1,3-dimethyl-2-oxo-1,2-dihydroquinolin-5-yl)-3,4-dihydro-2H-pyrido[4,3-b][1,4]oxazin-7-yl) picolinamide] | 100 to 999 | < 20 | > 80 | < 1
7 | Cc1cc2c(N3CCCc4nc(-c5ccc(C(=O)NCC#Cc6ccc7occ(C8CCC(=O)NC8=O)c7c6)nc5)ncc43)nc(N3CC4CCC(C3)O4)cc2n(C)c1=O (stereo not drawn) [Example B115, 5-(5-(7-(8-oxa-3-azabicyclo[3.2.1]octan-3-yl)-1,3-dimethyl-2-oxo-1,2-dihydro-1,6-naphthyridin-5-yl)-5,6,7,8-tetrahydropyrido [3,2-d]pyrimidin-2-yl)-N-(3-(3-(2,6-dioxopiperidin-3-yl)benzofuran-5-yl)prop-2-yn-1-yl)picolinamide] | > 1000 | < 20 | 60 to 79 | 1 to 9.9
8 | [2H]C([2H])(C#Cc1ccc2occ(C3CCC(=O)NC3=O)c2c1)NC(=O)c1ccc(-c2ncc3c(n2)CCCN3c2cc(C3CCOCC3)cc3c2cc(C)c(=O)n3C)cn1 (stereo not drawn) [Example B117, 5-(5-(1,3-dimethyl-2-oxo-7-(tetrahydro-2H-pyran-4-yl)-1,2-dihydroquinolin-5-yl)-5,6,7,8-tetrahydropyrido[3,2-d]pyrimidin-2-yl)-N-(3-(3-(2,6-dioxopiperidin-3-yl)benzofuran-5-yl)prop-2-yn-1-yl-1,1-d2)picolinamide] | 100 to 999 | < 20 | > 80 | 1 to 9.9
9 | Cc1cc2c(N3CCCc4nc(-c5ccc(C(=O)NCC#Cc6ccc7occ(C8CCC(=O)NC8=O)c7c6)nc5)ncc43)cc(Cl)cc2n(C)c1=O (stereo not drawn) [Example B119, 5-(5-(7-chloro-1,3-dimethyl-2-oxo-1,2-dihydroquinolin-5-yl)-5,6,7,8-tetrahydro[3,2-d]pyrimidin-2-yl)-N-(3-(3-(2,6-dioxopiperidin-3-yl)benzofuran-5-yl)prop-2-yn-1-yl) picolinamide] | > 1000 | < 20 | 60 to 79 | 1 to 9.9
10 | Cc1cc2c(N3CCOc4cc(-c5ccc(C(=O)NCC#Cc6ccc7occ(C8CCC(=O)NC8=O)c7c6)nc5)ncc43)cc(F)cc2n(C)c1=O (stereo not drawn) [Example B123, N-(3-(3-(2,6-dioxopiperidin-3-yl)benzofuran-5-yl)prop-2-yn-1-yl)-5-(4-(7-fluoro-1,3-dimethyl-2-oxo-1,2-dihydroquinolin-5-yl)-3,4-dihydro-2H-pyrido[4,3-b][1,4]oxazin-7-yl)picolinamide] | > 1000 | < 20 | > 80 | 1 to 9.9
11 | Cc1cc2c(N3CCN(C)c4nc(-c5ccc(C(=O)NCC#Cc6ccc7occ(C8CCC(=O)NC8=O)c7c6)nc5)ncc43)cc(C3CCOCC3)cc2n(C)c1=O (stereo not drawn) [Example B124, 5-(5-(1,3-dimethyl-2-oxo-7-(tetrahydro-2H-pyran-4-yl)-1,2-dihydroquinolin-5-yl)-8-methyl-5,6,7,8-tetrahydropteridin-2-yl)-N-(3-(3-(2,6-dioxopiperidin-3-yl)benzofuran-5-yl)prop-2-yn-1-yl)picolinamide] | 1 to 9.9 | 40 to 59 | > 80 | < 1
12 | Cc1cc2c(N3CCCc4nc(-c5ccc(C(=O)NCC#Cc6ccc7occ(C8CCC(=O)NC8=O)c7c6)nc5)ccc43)cc(C3CCOCC3)cc2n(C)c1=O (stereo not drawn) [Example B127, 5-(5-(1,3-dimethyl-2-oxo-7-(tetrahydro-2H-pyran-4-yl)-1,2-dihydroquinolin-5-yl)-5,6,7,8-tetrahydro-1,5-naphthyridin-2-yl)-N-(3-(3-(2,6-dioxopiperidin-3-yl)benzofuran-5-yl)prop-2-yn-1-yl)picolinamide] | > 1000 | < 20 | > 80 | 1 to 9.9
13 | Cc1cc2c(-c3cn(C)c(=O)c4cc(-c5ccc(C(=O)NCC#Cc6cc7c(C8CCC(=O)NC8=O)cccc7o6)nc5)ncc34)nc(N3CCOCC3)cc2n(C)c1=O (stereo not drawn) [Example B131, 5-(8-(1,3-dimethyl-7-morpholino-2-oxo-1,2-dihydro-1,6-naphthyridin-5-yl)-6-methyl-5-oxo-5,6-dihydro-2,6-naphthyridin-3-yl)-N-(3-(4-(2,6-dioxopiperidin-3-yl)benzofuran-2-yl)prop-2-yn-1-yl)picolinamide] | > 1000 | < 20 | > 80 | 1 to 9.9
14 | Cc1cc2c(-c3cccc4cc(-c5ccc(C(=O)NCC#Cc6ccc7occ(C8CCC(=O)NC8=O)c7c6)nc5)ncc34)nc(C3CCOCC3)cc2n(C)c1=O (stereo not drawn) [Example B132, 5-(8-(1,3-dimethyl-2-oxo-7-(tetrahydro-2H-pyran-4-yl)-1,2-dihydro-1,6-naphthyridin-5-yl)isoquinolin-3-yl)-N-(3-(3-(2,6-dioxo-piperidin-3-yl)benzofuran-5-yl)prop-2-yn-1-yl)picolinamide] | > 1000 | < 20 | > 80 | 1 to 9.9
15 | Cc1cc2c(N3CCCc4nc(-c5ccc(C(=O)NCC#Cc6cc7c(C8CCC(=O)NC8=O)nccc7n6C)nc5)ncc43)cc(C3CCOCC3)cc2n(C)c1=O (stereo not drawn) [Example B136, 5-(5-(1,3-dimethyl-2-oxo-7-(tetrahydro-2H-pyran-4-yl)-1,2-dihydroquinolin-5-yl)-5,6,7,8-tetrahydropyrido[3,2-d]pyrimidin-2-yl)-N-(3-(4-(2,6-dioxopiperidin-3-yl)-1-methyl-1H-pyrrolo[3,2-c]pyridin-2-yl)prop-2-yn-1-yl) picolinamide] | > 1000 | < 20 | 60 to 79 | 1 to 9.9
16 | Cc1cc2c(N3CCCc4nc(-c5ccc(C(=O)NCC#Cc6ccc7occ(C8CCC(=O)NC8=O)c7c6)nc5)ncc43)nc(N3CC4(COC4)C3)cc2n(C)c1=O (stereo not drawn) [Example B137, 5-(5-(1,3-dimethyl-2-oxo-7-(2-oxa-6-azaspiro[3.3]heptan-6-yl)-1,2-dihydro-1,6-naphthyridin-5-yl)-5,6,7,8-tetrahydropyrido [3,2-d]pyrimidin-2-yl)-N-(3-(3-(2,6-dioxo-piperidin-3-yl)benzofuran-5-yl)prop-2-yn-1-yl)picolinamide] | > 1000 | < 20 | 60 to 79 | 1 to 9.9
17 | Cc1cc2c(N3CCCc4cc(-c5ccc(C(=O)NCC#Cc6cc7c(C8CCC(=O)NC8=O)cccc7o6)nc5)nnc43)cc(C3CCOCC3)cc2n(C)c1=O (stereo not drawn) [Example B138, 5-(8-(1,3-dimethyl-2-oxo-7-(tetrahydro-2H-pyran-4-yl)-1,2-dihydroquinolin-5-yl)-5,6,7,8-tetrahydropyrido[2,3-c]pyridazin-3-yl)-N-(3-(4-(2,6-dioxopiperidin-3-yl)benzofuran-2-yl)prop-2-yn-1-yl)picolinamide] | 100 to 999 | < 20 | > 80 | < 1
